Data: PubChem BioAssay (NCI)
Several values for one entry are separate records, joined by “and”; a condition that tells them apart may be missing. Equal values may be shown once.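 These data come from cells grown in 96-well plates and exposed to compound for 48 hours at five concentrations. GI50 marks 50% less growth. TGI is the concentration that stops growth completely.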

Assays:
Test in all cases: growth of human tumour cells (NCI), 48 h
[1] = system: K-562 leukemia
[2] = system: RPMI-8226 leukemia
[3] = system: SN12C renal
[4] = system: OVCAR-5 ovarian
[5] = system: ACHN renal
[6] = system: SK-MEL-2 melanoma
[7] = system: OVCAR-4 ovarian
[8] = system: CCRF-CEM leukemia
[9] = system: A498 renal
[10] = system: MCF7 breast

For `N#CCCN(CCC#N)c1ccc(/C=C(/NC(=O)Nc2ccccc2Cl)NC(=O)c2cc([N+](=O)[O-])ccc2Cl)cc1`, the TGI [1] was greater than 100 µM, the TGI [2] was greater than 100 µM and the TGI [3] was greater than 100 µM. The TGI [4] was greater than 100 µM, the TGI [5] was greater than 100 µM and the TGI [6] was greater than 100 µM. The TGI [7] was greater than 100 µM and the TGI [8] was greater than 100 µM.

In the case of `O=C(NCc1ccccc1)C1C(=O)C(=O)N(Cc2ccccc2)C1=O` (configuration not stated), the TGI [1] is reported as greater than 100 µM, the TGI [2] is reported as greater than 100 µM and the TGI [3] is reported as greater than 100 µM. For the same compound, the TGI [4] was greater than 100 µM, the TGI [9] was greater than 100 µM and the TGI [5] was greater than 100 µM. The TGI [6] was greater than 100 µM, the TGI [7] was greater than 100 µM and the TGI [8] was greater than 100 µM.

For `COC1(OC)C2C=CC1C([C@](C)(N)CO)C2` (some centres not stated), the TGI [1] was greater than 100 µM, the TGI [3] was greater than 100 µM and the TGI [4] was greater than 100 µM. For the same compound, the TGI [9] was greater than 100 µM, the TGI [10] was greater than 100 µM and the TGI [5] was greater than 100 µM. For the same compound, the TGI [7] was greater than 100 µM and the TGI [8] was greater than 100 µM.

`Cc1cc(C)c(C(=O)C(C)C(c2ccccc2)c2ccc(Cl)cc2)c(C)c1` (configuration not stated) was tested, and the TGI [1] was greater than 100 µM, the GI50 [2] was 82.4 µM and 29.3 µM and the TGI [2] was greater than 100 µM. For the same compound, the TGI [3] was greater than 100 µM, the TGI [5] was greater than 100 µM and the GI50 [6] was 9.38 µM and 32.1 µM. The TGI [6] was greater than 100 µM, the TGI [7] was greater than 100 µM and the TGI [8] was greater than 100 µM.

`CCC(=O)CCC1=Nc2nnc(CCCCc3nnc4n3C(=O)C(CCC(=O)CC)=N4)n2C1=O` gave a TGI [1] greater than 100 µM, a TGI [2] greater than 100 µM and a TGI [3] greater than 100 µM. It also gave a TGI [4] greater than 100 µM, a TGI [9] greater than 100 µM and a TGI [5] greater than 100 µM. For the same compound, the TGI [6] was greater than 100 µM, the TGI [7] was greater than 100 µM and the TGI [8] was greater than 100 µM.

In the case of `COc1ccc(/C=C/c2nc(=S)[nH][nH]2)cc1OC`, the TGI [1] is reported as greater than 100 µM, the TGI [2] is reported as greater than 100 µM and the TGI [3] is reported as greater than 100 µM. The TGI [4] was greater than 100 µM, the TGI [9] was greater than 100 µM and the TGI [5] was greater than 100 µM. The TGI [6] was greater than 100 µM, the TGI [7] was greater than 100 µM and the TGI [8] was greater than 100 µM.

`O=C1c2c(O)cccc2Cc2cc(CO)cc(O)c21` gave a TGI [1] greater than 100 µM, a TGI [2] of 7.34 µM and a TGI [3] of 16.9 µM. It also gave a TGI [4] of 15.2 µM, a TGI [9] of 17.8 µM and a TGI [5] of 12.4 µM. It also gave a TGI [7] of 14.4 µM and a TGI [8] greater than 100 µM.

`Clc1ccc(N2N=C(c3cccc(Nc4ccncc4)c3)CC2c2ccc(Br)cc2)cc1` (configuration not stated) was tested, and the GI50 [3] was 1.67 µM, the TGI [3] was 3.21 µM and the GI50 [4] was 1.66 µM. The TGI [4] was 3.1 µM, the GI50 [9] was 1.07 µM and the TGI [9] was 2.3 µM. It also gave a GI50 [5] of 1.7 µM, a TGI [5] of 3.06 µM and a GI50 [7] of 1.83 µM. The TGI [7] was 3.36 µM, the GI50 [8] was 3.43 µM and the TGI [8] was greater than 100 µM.

With `O=C(NC(CCCCN1C(=O)c2ccccc2C1=O)P(=O)(Oc1ccccc1)Oc1ccccc1)OCc1ccccc1` (configuration not stated) the TGI [2] was greater than 100 µM, the TGI [3] was greater than 100 µM and the TGI [4] was greater than 100 µM. For the same compound, the TGI [10] was greater than 100 µM, the TGI [5] was greater than 100 µM and the TGI [6] was greater than 100 µM.

For `CCOC(=O)CCc1ccc(NC(=O)/C=C/c2ccc([N+](=O)[O-])o2)cc1`, the TGI [3] was 4.26 µM, the TGI [4] was 6.4 µM and the TGI [9] was 7.27 µM. It also gave a TGI [10] of 32.4 µM, a TGI [5] of 2.73 µM and a TGI [6] of 4.82 µM. It also gave a TGI [7] greater than 100 µM and a TGI [8] of 0.957 µM.

`CC1OC(CC2C=CCc3c(O)c4c(c(O)c32)C(=O)c2ccccc2C4=O)CC(NC(=O)C(F)(F)F)C1O` (configuration not stated) gave a TGI [1] of 20.6 µM, a TGI [2] of 28 µM and a TGI [3] of 18.2 µM. The TGI [4] was greater than 100 µM, the TGI [9] was 16.5 µM and the TGI [5] was 25.1 µM. The TGI [6] was 30.2 µM, the TGI [7] was 11.7 µM and the TGI [8] was 20.7 µM.

`O=S(=O)(CF)OCCCCOS(=O)(=O)CF` was tested, and the TGI [1] was greater than 100 µM, the TGI [2] was greater than 100 µM and the TGI [3] was greater than 100 µM. For the same compound, the TGI [9] was greater than 100 µM, the TGI [5] was greater than 100 µM and the TGI [6] was greater than 100 µM. The TGI [8] was greater than 100 µM.
